In publication PMC5417683, “Plastidial α-glucan phosphorylase 1 complexes with disproportionating enzyme 1 in Ipomoea batatas storage roots for elevating malto-oligosaccharide metabolism” (PLoS ONE, 2017):

Target: T1, Pho1 (free form) (Ipomoea batatas, UniProt P27598)
T1 construct: native, purified from storage roots; 110-kDa band; 220-kDa homodimer
T1 sequence (P27598 44-955): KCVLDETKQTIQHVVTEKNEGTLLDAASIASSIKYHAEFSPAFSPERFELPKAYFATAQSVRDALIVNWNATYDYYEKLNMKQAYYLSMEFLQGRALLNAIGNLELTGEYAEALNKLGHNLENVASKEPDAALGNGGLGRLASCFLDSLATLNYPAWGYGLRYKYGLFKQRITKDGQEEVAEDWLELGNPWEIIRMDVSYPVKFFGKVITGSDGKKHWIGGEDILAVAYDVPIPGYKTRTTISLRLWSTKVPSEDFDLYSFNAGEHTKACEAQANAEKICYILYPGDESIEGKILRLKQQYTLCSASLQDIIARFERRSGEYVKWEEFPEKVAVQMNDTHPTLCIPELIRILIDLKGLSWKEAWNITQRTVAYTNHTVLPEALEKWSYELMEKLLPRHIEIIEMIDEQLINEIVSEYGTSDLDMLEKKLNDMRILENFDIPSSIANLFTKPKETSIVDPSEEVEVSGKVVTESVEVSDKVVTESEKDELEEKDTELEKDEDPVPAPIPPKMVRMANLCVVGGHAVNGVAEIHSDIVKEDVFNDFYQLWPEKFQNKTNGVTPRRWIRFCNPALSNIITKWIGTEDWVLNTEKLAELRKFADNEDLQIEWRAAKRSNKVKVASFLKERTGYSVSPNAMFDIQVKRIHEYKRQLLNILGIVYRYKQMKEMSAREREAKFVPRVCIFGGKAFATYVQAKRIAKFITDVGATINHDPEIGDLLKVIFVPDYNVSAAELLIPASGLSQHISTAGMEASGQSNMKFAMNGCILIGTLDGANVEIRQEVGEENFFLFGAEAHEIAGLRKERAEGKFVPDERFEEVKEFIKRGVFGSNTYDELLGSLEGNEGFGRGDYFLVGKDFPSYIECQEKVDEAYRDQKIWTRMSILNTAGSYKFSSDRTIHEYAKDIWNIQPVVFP
Assay: Glc-1-P production, coupled phosphoglucomutase / Glc-6-P dehydrogenase (NADPH)
Type: biochemical
Conditions: 0.5 mM substrate, 0.5 mM inorganic phosphate, 50 mM sodium acetate pH 6.0, 37°C, 1 h; phosphorolysis

Compound	Glc-1-P production, coupled phosphoglucomutase / Glc-6-P dehydrogenase (NADPH)
OC[C@H]1O[C@H](O[C@H]2[C@H](O)[C@@H](O)[C@@H](O[C@H]3[C@H](O)[C@@H](O)[C@@H](O[C@H]4[C@H](O)[C@@H](O)[C@@H](O[C@H]5[C@H](O)[C@@H](O)[C@@H](O[C@H]6[C@H](O)[C@@H](O)C(O)O[C@@H]6CO)O[C@@H]5CO)O[C@@H]4CO)O[C@@H]3CO)O[C@@H]2CO)[C@H](O)[C@@H](O)[C@@H]1O (some centres unmarked) [G6, maltohexaose]	displayed high catalytic activity with G5, G6, G7, or dextrin to produce Glc-1-P
OC[C@H]1O[C@H](O[C@H]2[C@H](O)[C@@H](O)[C@@H](O[C@H]3[C@H](O)[C@@H](O)[C@@H](O[C@H]4[C@H](O)[C@@H](O)[C@@H](O[C@H]5[C@H](O)[C@@H](O)C(O)O[C@@H]5CO)O[C@@H]4CO)O[C@@H]3CO)O[C@@H]2CO)[C@H](O)[C@@H](O)[C@@H]1O (some centres unmarked) [G5, maltopentaose]	displayed high catalytic activity with G5, G6, G7, or dextrin to produce Glc-1-P
